Experimental data: US20120178766A1, “FUROPYRIMIDINEDIONE DERIVATIVES AS TRPAI MODULATORS” (priority 2009, published 2012)

Key:
rat TRPA1 = target: T1, rat TRPA1 (Rattus norvegicus, UniProt Q6RI86); assay: 45Calcium uptake assay: inhibition of AITC induced cellular uptake of radioactive calcium, rat TRPA1 expressing CHO cells; format: cell-based; conditions: AITC 10 μM; for inhibition at 10 µM: 10.0 μM compound, read-out: rat TRPA1 Percentage inhibition at 10.0 μM; for inhibition at 1 µM: read-out: rat TRPA1 Percentage inhibition; for IC50: class symbols
T1 construct: expressed in transfected cells; host or cells: CHO cells (Zeocin selection)
Outline: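 CHO cells expressing rat or human TRPA1 were pre-treated with compound for 10 min, then given AITC (30 μM human, 10 μM rat) plus 5 μCi/ml 45Ca2+ for 3 min; final DMSO 0.5%. Lysate radioactivity was counted by scintillation. IC50 came from nonlinear regression of concentration-response curves as % of maximal response.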

human TRPA1 = target: T2, human TRPA1 (Homo sapiens, UniProt O75762); assay: 45Calcium uptake assay: inhibition of AITC induced cellular uptake of radioactive calcium, human TRPA1 expressing CHO cells; format: cell-based; conditions: AITC 30 μM
T2 construct: expressed in transfected cells; host or cells: CHO cells (G-418 selection)
Outline: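 CHO cells expressing TRPA1 were preincubated 10 min with compound (0.5% DMSO final), then given AITC (30 μM human, 10 μM rat) plus 5 μCi/ml 45Ca2+ for 3 min. Lysate radioactivity measured by scintillation; IC50 obtained by nonlinear regression of % maximal response without antagonist.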

T2 sequence (O75762 whole entry): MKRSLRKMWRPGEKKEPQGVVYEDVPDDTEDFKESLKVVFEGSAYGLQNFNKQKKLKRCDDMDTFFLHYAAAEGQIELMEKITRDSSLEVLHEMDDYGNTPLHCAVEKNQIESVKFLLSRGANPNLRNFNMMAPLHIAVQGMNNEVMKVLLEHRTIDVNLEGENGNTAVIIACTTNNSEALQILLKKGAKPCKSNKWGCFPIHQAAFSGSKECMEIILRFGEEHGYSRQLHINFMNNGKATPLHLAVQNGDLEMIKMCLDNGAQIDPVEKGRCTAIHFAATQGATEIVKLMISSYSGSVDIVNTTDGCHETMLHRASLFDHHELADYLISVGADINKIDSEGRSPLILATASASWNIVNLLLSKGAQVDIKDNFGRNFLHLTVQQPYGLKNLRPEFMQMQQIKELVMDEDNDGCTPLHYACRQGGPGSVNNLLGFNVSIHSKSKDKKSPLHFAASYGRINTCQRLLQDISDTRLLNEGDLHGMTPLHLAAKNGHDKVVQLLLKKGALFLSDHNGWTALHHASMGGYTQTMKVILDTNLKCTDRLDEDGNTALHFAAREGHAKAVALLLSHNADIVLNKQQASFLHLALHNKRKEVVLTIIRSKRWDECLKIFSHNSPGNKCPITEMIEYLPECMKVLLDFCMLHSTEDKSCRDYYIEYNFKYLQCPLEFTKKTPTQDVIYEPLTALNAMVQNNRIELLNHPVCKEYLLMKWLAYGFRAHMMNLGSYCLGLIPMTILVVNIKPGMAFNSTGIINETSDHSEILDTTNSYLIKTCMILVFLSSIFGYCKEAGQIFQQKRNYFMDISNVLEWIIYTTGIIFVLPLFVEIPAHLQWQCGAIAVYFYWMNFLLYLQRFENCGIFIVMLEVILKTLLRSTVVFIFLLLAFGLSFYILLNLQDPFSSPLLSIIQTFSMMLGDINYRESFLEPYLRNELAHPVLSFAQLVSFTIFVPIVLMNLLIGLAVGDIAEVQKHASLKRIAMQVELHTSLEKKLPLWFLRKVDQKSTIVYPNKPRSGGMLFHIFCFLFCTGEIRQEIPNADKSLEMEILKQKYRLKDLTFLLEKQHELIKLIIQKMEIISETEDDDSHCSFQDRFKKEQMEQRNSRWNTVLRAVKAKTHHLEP
T1 sequence (Q6RI86 whole entry): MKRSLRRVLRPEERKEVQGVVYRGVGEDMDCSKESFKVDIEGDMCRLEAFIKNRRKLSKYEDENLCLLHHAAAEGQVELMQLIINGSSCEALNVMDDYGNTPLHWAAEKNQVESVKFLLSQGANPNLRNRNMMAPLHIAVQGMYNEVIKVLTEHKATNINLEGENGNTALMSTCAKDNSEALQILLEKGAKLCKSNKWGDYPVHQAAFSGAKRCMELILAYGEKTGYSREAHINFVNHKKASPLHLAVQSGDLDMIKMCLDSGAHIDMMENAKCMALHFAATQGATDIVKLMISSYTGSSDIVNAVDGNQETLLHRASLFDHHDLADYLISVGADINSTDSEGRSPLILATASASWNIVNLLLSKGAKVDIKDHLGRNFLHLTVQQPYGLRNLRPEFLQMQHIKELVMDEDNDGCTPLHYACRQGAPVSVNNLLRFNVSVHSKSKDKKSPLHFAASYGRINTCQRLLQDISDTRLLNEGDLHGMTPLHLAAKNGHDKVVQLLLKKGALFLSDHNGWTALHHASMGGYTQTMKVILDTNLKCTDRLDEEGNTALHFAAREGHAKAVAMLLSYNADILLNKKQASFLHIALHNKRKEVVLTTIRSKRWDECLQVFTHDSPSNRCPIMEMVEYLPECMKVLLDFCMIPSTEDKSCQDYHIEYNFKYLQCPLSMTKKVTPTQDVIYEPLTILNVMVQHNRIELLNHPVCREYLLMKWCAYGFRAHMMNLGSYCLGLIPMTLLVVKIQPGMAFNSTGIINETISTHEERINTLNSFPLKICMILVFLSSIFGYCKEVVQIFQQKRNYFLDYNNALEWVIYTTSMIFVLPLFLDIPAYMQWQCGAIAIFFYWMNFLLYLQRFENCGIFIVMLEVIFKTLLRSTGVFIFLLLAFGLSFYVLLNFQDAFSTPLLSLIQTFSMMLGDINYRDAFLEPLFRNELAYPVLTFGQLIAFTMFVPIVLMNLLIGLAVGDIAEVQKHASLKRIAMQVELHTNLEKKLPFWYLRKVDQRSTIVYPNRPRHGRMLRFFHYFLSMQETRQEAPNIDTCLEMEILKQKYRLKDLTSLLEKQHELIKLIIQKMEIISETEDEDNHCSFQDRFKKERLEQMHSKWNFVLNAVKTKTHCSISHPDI

| Structure (SMILES) | inhibition at 10 µM (rat TRPA1) [%] | inhibition at 1 µM (rat TRPA1) [%] | IC50 (human TRPA1; class symbols) [nM] | IC50 (rat TRPA1) [nM] | IC50 (human TRPA1; numeric values) [nM] |
| --- | --- | --- | --- | --- | --- |
| Cc1oc2c(c1CC(=O)Nc1nc(-c3ccc(OCC(F)(F)F)c(F)c3)cs1)c(=O)n(C)c(=O)n2C [Example 73, N1-{4-[3-Fluoro-4-(2,2,2-trifluoroethoxy)phenyl]-1,3-thiazol-2-yl}-2-(1,3,6-trimethyl-2,4-dioxo-1,2,3,4-tetrahydrofuro[2,3-d]pyrimidin-5-yl)acetamide] | 100 | 100 | < 50 | – | – |
| Cc1oc2c(c1CC(=O)Nc1nc(-c3ccc(OCC(F)(F)F)c(Cl)c3)cs1)c(=O)n(C)c(=O)n2C [Example 74, N1-{4-[3-Chloro-4-(2,2,2-trifluoroethoxy)phenyl]-1,3-thiazol-2-yl}-2-(1,3,6-trimethyl-2,4-dioxo-1,2,3,4-tetrahydrofuro[2,3-d]pyrimidin-5-yl)acetamide] | 100 | 100 | < 50 | < 50 | – |
| Cc1oc2c(c1CC(=O)Nc1nc(-c3cc(F)c(F)cc3F)cs1)c(=O)n(C)c(=O)n2C [Example 75, N1-[4-(2,4,5-Trifluorophenyl)-1,3-thiazol-2-yl]-2-(1,3,6-trimethyl-2,4-dioxo-1,2,3,4-tetrahydrofuro[2,3-d]pyrimidin-5-yl)acetamide] | – | – | – | 50 to 100 | 18.5 |
| Cc1oc2c(c1CC(=O)Nc1nc(-c3cc(F)c(F)c(F)c3)cs1)c(=O)n(C)c(=O)n2C [Example 76, N1-[4-(3,4,5-Trifluorophenyl)-1,3-thiazol-2-yl]-2-(1,3,6-trimethyl-2,4-dioxo-1,2,3,4-tetrahydrofuro[2,3-d]pyrimidin-5-yl)acetamide] | – | – | – | 50 to 100 | 7.65 |
| Cc1oc2c(c1CC(=O)Nc1nc(-c3ccc(F)c(F)c3F)cs1)c(=O)n(C)c(=O)n2C [Example 77, N1-[4-(2,3,4-Trifluorophenyl)-1,3-thiazol-2-yl]-2-(1,3,6-trimethyl-2,4-dioxo-1,2,3,4-tetrahydrofuro[2,3-d]pyrimidin-5-yl)acetamide] | 98.5 | 99.2 | – | – | 19.2 |
| Cc1oc2c(c1CC(=O)Nc1nc(-c3ccc(F)c(Cl)c3F)cs1)c(=O)n(C)c(=O)n2C [Example 78, N1-[4-(3-Chloro-2,4-difluorophenyl)-1,3-thiazol-2-yl]-2-(1,3,6-trimethyl-2,4-dioxo-1,2,3,4-tetrahydrofuro[2,3-d]pyrimidin-5-yl)acetamide] | 94.8 | 94.5 | – | – | 34.5 |
| Cc1oc2c(c1CC(=O)Nc1nc(-c3cc(F)c(OCC(C)(C)C)c(F)c3)cs1)c(=O)n(C)c(=O)n2C [Example 80] | – | – | – | < 50 | 3.63 |
| Cc1oc2c(c1CC(=O)Nc1nc(-c3cc(F)c(OCC(C)C)c(F)c3)cs1)c(=O)n(C)c(=O)n2C [Example 81, N1-[4-(3,5-Difluoro-4-isobutoxyphenyl)-1,3-thiazol-2-yl]-2-(1,3,6-trimethyl-2,4-dioxo-1,2,3,4-tetrahydrofuro[2,3-d]pyrimidin-5-yl)acetamide] | 99.2 | 100 | – | 50 to 100 | 4.63 |
| Cc1oc2c(c1CC(=O)Nc1nc(-c3cc(Cl)c(OCC(C)C)c(Cl)c3)cs1)c(=O)n(C)c(=O)n2C [Example 82, N1-[4-(3,5-Dichloro-4-isobutoxyphenyl)-1,3-thiazol-2-yl]-2-(1,3,6-trimethyl-2,4-dioxo-1,2,3,4-tetrahydrofuro[2,3-d]pyrimidin-5-yl)acetamide] | 100 | 100 | – | < 50 | 3.34 |
| Cc1oc2c(c1CC(=O)Nc1nc(-c3ccc(F)c(C(F)(F)F)c3F)cs1)c(=O)n(C)c(=O)n2C [Example 83, N1-{4-[2,4-Difluoro-3-(trifluoromethyl)phenyl]-1,3-thiazol-2-yl}-2-(1,3,6-trimethyl-2,4-dioxo-1,2,3,4-tetrahydrofuro[2,3-d]pyrimidin-5-yl)acetamide] | – | – | – | < 50 | 4.52 |
| Cc1oc2c(c1CC(=O)Nc1nc(-c3cc(F)c(C(F)(F)F)c(F)c3)cs1)c(=O)n(C)c(=O)n2C [Example 84, N1-{4-[3,5-Difluoro-4-(trifluoromethyl)phenyl]-1,3-thiazol-2-yl}-2-(1,3,6-trimethyl-2,4-dioxo-1,2,3,4-tetrahydrofuro[2,3-d]pyrimidin-5-yl)acetamide] | – | – | – | < 50 | 4.16 |
| Cc1oc2c(c1CC(=O)Nc1nc(-c3cc(F)c(OC(F)F)c(F)c3)cs1)c(=O)n(C)c(=O)n2C [Example 85, N1-{4-[3,5-Difluoro-4-(difluoromethoxy)phenyl]-1,3-thiazol-2-yl}-2-(1,3,6-trimethyl-2,4-dioxo-1,2,3,4-tetrahydrofuro[2,3-d]pyrimidin-5-yl)acetamide] | 100 | 100 | – | – | 6.57 |
| Cc1oc2c(c1CC(=O)Nc1nc(-c3cc(Cl)c(OC(F)F)c(Cl)c3)cs1)c(=O)n(C)c(=O)n2C [Example 86, N1-{4-[3,5-Dichloro-4-(difluoromethoxy)phenyl]-1,3-thiazol-2-yl}-2-(1,3,6-trimethyl-2,4-dioxo-1,2,3,4-tetrahydrofuro[2,3-d]pyrimidin-5-yl)acetamide] | 95.4 | 99.1 | – | < 50 | 4.11 |
| Cc1oc2c(c1CC(=O)Nc1nc(-c3cc(F)c(OCC(F)(F)F)c(F)c3)cs1)c(=O)n(C)c(=O)n2C [Example 87, N1-{4-[3,5-Difluoro-4-(2,2,2-trifluoroethoxy)phenyl]-1,3-thiazol-2-yl}-2-(1,3,6-trimethyl-2,4-dioxo-1,2,3,4-tetrahydrofuro[2,3-d]pyrimidin-5-yl)acetamide] | – | – | – | < 50 | 1.68 |
| Cc1oc2c(c1CC(=O)Nc1nc(-c3cc(Cl)c(OCC(F)(F)F)c(Cl)c3)cs1)c(=O)n(C)c(=O)n2C [Example 88, N1-{4-[3,5-Dichloro-4-(2,2,2-trifluoroethoxy)phenyl]-1,3-thiazol-2-yl}-2-(1,3,6-trimethyl-2,4-dioxo-1,2,3,4-tetrahydrofuro[2,3-d]pyrimidin-5-yl)acetamide] | 100 | 98.3 | – | – | 1.77 |
| Cc1oc2c(c1CC(=O)Nc1nc(-c3cc(F)c(OCC4CC4)c(F)c3)cs1)c(=O)n(C)c(=O)n2C [Example 89, N1-{4-[4-(Cyclopropylmethoxy)-3,5-difluorophenyl]-1,3-thiazol-2-yl]-2-(1,3,6-trimethyl-2,4-dioxo-1,2,3,4-tetrahydrofuro[2,3-d]pyrimidin-5-yl)acetamide] | 98.8 | – | – | 50 to 100 | 9.72 |
| Cc1oc2c(c1CC(=O)Nc1nc(-c3ccc(F)c(C(F)(F)F)c3)c(C)s1)c(=O)n(C)c(=O)n2C [Example 90, N1-{4-[4-Fluoro-3-(trifluoromethyl)phenyl]-5-methyl-1,3-thiazol-2-yl}-2-(1,3,6-trimethyl-2,4-dioxo-1,2,3,4-tetrahydrofuro[2,3-d]pyrimidin-5-yl)acetamide] | 99.5 | 98 | – | – | 14.2 |
